From PubChem BioAssay AID720513 (Broad Institute, 2013)
Inconclusive results are not listed.

System: U2OS PGC1a acetylation AlphaLISA, overnight
Assay: activators raising PGC1a acetylation in cells, dose response, cell-based, cherry-picked samples, set 6 (AID 720513);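 note: cells made to overexpress flag tagged PGC1a plus GCN5 acetyltransferase by viral infection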

Compound	AC40 [µM]
CCOC(=O)CNS(=O)(=O)c1cc(-c2nnc(Nc3ccc4c(c3)OCO4)c3ccccc23)ccc1C	1.29
CCN1CCN(c2cc(C)c3cc(NC(=O)c4ccc(Br)o4)ccc3n2)CC1	8.23
Cc1cccc(Nc2nnc(-c3ccc(C(=O)N4C[C@H]5C[C@H](C4)c4cccc(=O)n4C5)cc3)c3ccccc23)c1	11.2
CCN(CC)C(=O)CSc1nnc2nnc3cc(Cl)ccc3n12	17.9
CC(C)NC(=O)Nc1ccc2c(c1)C(=O)N([C@@H](C)CO)C[C@@H](C)[C@@H](CN(C)S(=O)(=O)c1ccccc1)OCCCC[C@H](C)O2	14.8
C[C@@H]1CN([C@H](C)CO)C(=O)c2c(c3ccccc3n2C)-c2ccccc2CO[C@@H]1CN(C)C(=O)Nc1ccccc1C(F)(F)F	3.71
CCN(CC)S(=O)(=O)c1c(Br)cc(C)cc1Br	1.29
CCn1c(=S)[nH]c2cc(S(=O)(=O)N3CCCCC3)ccc21	1.62
CCCCC(=O)Nc1ccc(NC(=O)c2cccs2)cn1	18.9
COc1cccc(CN2C[C@@H]3N[C@H](C2)C3c2ccc(-c3cccc(C#N)c3)cc2)c1 (stereo partly drawn)	10
O=C(CN1CCC(n2nnc3cc(F)ccc32)CC1)Nc1ccc2c(c1)CCC2	2.71
O=C1NCN(c2ccccc2)C12CCN(C(c1cccc3ccccc13)c1nnnn1C1CCCCC1)CC2 (stereo not drawn)	5.43
CN1/C(=C\C(=O)c2cccc(S(=O)(=O)N3CCCCC3)c2)C(C)(C)c2ccccc21	10.9
COc1ccc(N(C(=O)c2snc(C(N)=O)c2N)C(C(=O)NC2CCCCC2)c2ccc(C)o2)cc1 (stereo not drawn)	5.68
Cc1ccccc1-c1ccc(C2[C@@H]3CN(S(=O)(=O)c4ccccc4C)C[C@H]2N3)cc1 (stereo partly drawn)	12.9
CCOC(=O)C1=CC[C@@H](c2ccccc2)N(S(=O)(=O)c2ccc(C)cc2)[C@H]1c1cccc(OC)c1	9.62
COc1ccc(-c2cc(-c3ccccc3O)[nH]n2)cc1OC	7.33
N#Cc1ccccc1COC(=O)c1ccc2c(c1)OCCO2	5.43
COc1ccc(CCNC(=O)c2cc(-c3ccco3)on2)cc1OC	5.2
CO[C@@H](C(=O)N(C)C[C@H]1OCc2ccccc2-c2c(n(C)c3ccccc23)C(=O)N([C@H](C)CO)C[C@H]1C)c1ccccc1	8.25
c1coc(CN(Cc2cccs2)Cc2nnnn2C2CCCCC2)c1	2.52
CCOC(=O)c1oc2ccc(S(=O)(=O)N3CCC(C)CC3)cc2c1C	17.1
CN1c2ccccc2C2(C)CCCC3=Cc4cccc([N+](=O)[O-])c4OC312 (stereo not drawn)	0.48
CSc1nn(-c2ccc(C(=O)OC(C(=O)NC(N)=O)C(C)C)cc2)c(=S)s1 (stereo not drawn)	4.42
COc1ccc(-c2nc3c(C)cc(Br)cn3c2Cc2ccc(C)cc2)cc1OC	8.31

Compound	AC40 [µM]
CCCCCOC(=O)Cc1c(O)c2ccccc2n(C)c1=O	9.64
CN(C)CC(O)c1ccc(C=Cc2ccc(Cl)cc2)cc1 (stereo not drawn)	3.19
N#Cc1ccc(Oc2cccnc2)cc1C#N	6.09
CC1=CC(C)(C)N2C(=O)C3(SCC(=O)N3c3ccc(F)cc3)c3cc(C)cc1c32 (stereo not drawn)	0.966
COc1ccc(NC(=O)CSC2CC(=O)N(c3ccc4c(c3)OCCO4)C2=O)cc1 (stereo not drawn)	16.5
Cc1nn2c(NCCCN3CCOCC3)c3c(nc2c1-c1ccccc1)CCC3	3.72
Cc1coc2cc3oc(=O)c(CCC(=O)NC4CC4)c(C)c3cc12	1.6
CCOC(=O)c1ccc(NC(=O)Nc2ccc(F)cc2)cc1	16.2
O=[N+]([O-])c1cc(-c2nnc(Nc3ccc(O)cc3)c3ccccc23)ccc1N1CCOCC1	2.74
O=C(Nc1ccc(F)cc1F)N1CCCN(c2ccc([N+](=O)[O-])cn2)CC1	3.36
CC(=O)Nc1ccc(Nc2ncnc3c2cnn3-c2ccc(C)cc2C)cc1	2.53
Cc1ccc(-c2nnc(Nc3ccc4c(c3)OCO4)c3ccccc23)cc1S(=O)(=O)NCCO	2.08
O=C(NCc1ccccc1)C(c1ccccc1)N(C(=O)c1csnn1)c1ccc(F)cc1 (stereo not drawn)	4.34
CCC(C)(C)n1nnnc1C(c1ccccc1OC)N1CCSCC1 (stereo not drawn)	1.45
CCOC(=O)C1=CC[C@@H](c2ccc(OC)cc2)N(S(=O)(=O)c2ccc(C)cc2)[C@H]1CC	3.36
Fc1ccc(CN(Cc2ccccc2)C(c2cccs2)c2nnnn2C2CCCCC2)cc1 (stereo not drawn)	12.7
COc1cc(CN2CC3(CCN(S(=O)(=O)c4cccs4)CC3)c3c(n(C)c4cc(OC)ccc34)[C@H]2CO)cc(OC)c1	14.3
O=C(NCCC1=CCCCC1)c1coc(=O)c(Br)c1	1.37
Cc1cc(Nc2cccc(Cl)c2)c2ccccc2n1	6.94
C[C@@H]1CN([C@H](C)CO)C(=O)c2c(c3ccccc3n2C)-c2ccccc2CO[C@@H]1CN(C)C(=O)c1ccccc1	5.94
C[C@@H]1CN([C@H](C)CO)C(=O)c2c(c3ccccc3n2C)-c2ccccc2CO[C@@H]1CN(C)C(=O)Nc1cccc(C(F)(F)F)c1	10.5
C/C=C(/C)C(=O)O[C@@H]1c2cc(OC)c(OC)c(OC)c2-c2c(cc3c(c2OC)OCO3)C[C@H](C)[C@]1(C)O	1.48
O=C(C(Cc1ccccc1)n1cccc1)N1CCN(c2ccccc2)CC1 (stereo not drawn)	7.54
Nc1c(C(=O)Nc2ccccc2)c2nc3ccccc3nc2n1CCCN1CCOCC1	4.85
COC(=O)c1cc(S(=O)(=O)N2CCN(c3ccc(C(C)=O)cc3)CC2)c[nH]1	4.17

Compound	AC40 [µM]
CC(=O)CCS(=O)(=O)c1ccc(C)c(C)c1	6.64
CCCCN(CC)CCCNC(=O)c1cc2c(=O)n(CC)c3ccccc3c2s1	1.26
CN(C(=O)C1CC1)C1CCS(=O)(=O)C1 (stereo not drawn)	15.2
O=C(CN1CCC(n2nnc3cc(F)ccc32)CC1)NCc1ccco1	1.69
CCOC(=O)c1c(NC(=O)c2ccoc2C)sc2c1CCC2	13.9
Cc1cccc(-c2ccc(C3[C@@H]4CN(C(=O)C5CCCCC5)C[C@H]3N4)cc2)c1 (stereo partly drawn)	6.09
COc1ccc(CCNCc2ccc(-c3ccccc3)cc2)cc1OC	2.23
Nc1c(C(=O)c2ccccc2)sc2nsc(SCCN3CCCC3)c12	9.72
Cc1cc(C)cc(N(CC(=O)NC2CC3CCC2C3)S(C)(=O)=O)c1 (stereo not drawn)	17.1
O=C(Nc1ccccc1)C1=C[C@@H](c2ccc(C(F)(F)F)cc2)C[C@@H](OCc2ccc(CO)cc2)O1	< 2.6
CCOC(=O)C1CCCN(S(=O)(=O)c2ccc3c(c2)NC(=O)CO3)C1 (stereo not drawn)	0.439
COc1ccc(S(=O)(=O)Nc2ccc3c(c2)C(=O)N([C@@H](C)CO)C[C@@H](C)[C@H](CN(C)S(=O)(=O)c2ccc(Cl)cc2)OCCCC[C@H](C)O3)cc1	9.66
CCN(CC)CC(=O)N1c2ccccc2CCc2ccc(NC(=O)c3cc(OC)c(OC)c(OC)c3)cc21	8.84
Cc1c(C(=O)NCCSCc2c(F)cccc2Cl)cnn1-c1ccc(Cl)cc1	10.5
O=S(=O)(c1cccc(F)c1)N1CCN(Cc2cc3c(cc2Br)OCCO3)CC1	0.411
CCOc1ccc2c(c1)C(C)=CC(C)(C)N2S(=O)(=O)c1ccc(C)cc1	0.781
CCOC(=O)C1=C[C@@H](C(C)C)N(S(=O)(=O)c2ccc(C)cc2)[C@H]1c1ccc(C(F)(F)F)cc1	2.64
O=C(c1ccccc1)C(O)(Cc1ccccc1)c1ccccc1 (stereo not drawn)	0.901
OC1CCCC1NCc1ccnc2cc(Cl)ccc12 (stereo not drawn)	10.6
O=C(Cc1ccccc1)Nc1ccc(NC(=O)c2ccco2)nc1	1.44
CCn1c(SC/C=C/c2ccccc2)nnc1-c1cccs1	11.2
CCOC(=O)C(NC(=O)c1ccccc1OCC)(Nc1ncccn1)C(F)(F)F (stereo not drawn)	1.32
COc1ccc(CNc2ccc(-c3ccc(OC)cc3)nn2)cc1	1.47
